The results in this text go back to patent US9221795B2, “Phosphatidylinositol 3-kinase inhibitors” (Gilead Sciences, Inc., priority 2013, dated 2015).

The test system of series [1] is basophils. Kind of series: Basophil activation in human whole blood (Flow2 CAST kit, CD63 flow cytometry). The format is cell-based. As to conditions: Homo sapiens, human whole blood, basophils activated with anti-FcεRI mAb or fMLP, percent CD63 positive cells. The protocol: Effect on basophil activation was measured in human whole blood using the Flow2 CAST® kit (Buhlmann Laboratories AG, Baselstrasse, Switzerland) following the protocol provided by the manufacturer with minor modifications. Human whole blood was collected into K2-EDTA venipuncture tubes. Whole blood samples were treated with either DMSO (0.3% final) or a serial dilution of compounds in DMSO for 60 minutes at 37° C. Basophils were then activated either with anti-FcεRI mAb or with fMLP. To activate basophils using the anti-FcεRI mAb; 50 μL of whole blood was mixed with 110 μL of stimulation buffer (B-BAT-STB) and 20 μl of anti-FcεRI (B-BAT-STCON). To activate basophils with fMLP; 50 μL of whole blood was mixed with 80 μL of stimulation buffer (B-BAT-STB) and 50 μL of fMLP (B-CCR-FMLP). Stimulation buffer was used as a negative control. 20 μL of the staining reagent (combination of anti-human CD63-FITC and anti-human CCR3-PE mAbs) was then added to each tube. The tubes were mixed gently and incubated for 25 minutes at 37° C. Subsequently, erythrocytes were lysed and fixed by the addition of 2 mL of lysing solution (B-BAT-LYR) for 10 minutes at room temperature. Cells were pelleted by centrifugation at 1200 rpm for 10 minutes at room temperature in a swing-out rotor. Supernatant was aspirated and cell pellet resuspended in 400 μL of wash buffer. Flow cytometric analysis of the basophil activation was performed on a FC500MPL flow cytometer (Beckman Coulter Inc., Fullerton, Calif.). CCR3-staining and side scatter were applied to gate at least 200 basophils that expressed a high density of CCR3. The percent CD63 positive cells within the gated basophil population were determined in different treatment groups and normalized to the vehicle control (0.3% DMSO) with anti-FcεRI mAb of fMLP stimulus as 100%. Final compound concentration was adjusted to correct for dilution effect of added reagents. The EC50 values were calculated from the analysis of the dose-response curves to a four-parameter equation.

The nature of series [2]: Hepatocyte stability (parent drug disappearance in cryopreserved hepatocytes). It counts as in vitro ADME, human. As to conditions: human, cryopreserved human hepatocytes, human hepatocytes, 2 μM substrate, 37° C. The protocol:
This assay was used to evaluate the metabolic stability of test articles (TA) following incubation in cryopreserved hepatocytes by monitoring parent drug disappearance via LC/MC. The TA was incubated with 1 million hepatocytes/mL at 2 μM substrate in duplicate. The incubation was carried out at 37° C. with 5% CO2 and saturating humidity. Samples were taken at 0, 1, 2, and 4 hours to monitor the disappearance of TA and a half-life (t1/2) was determined. Table 3 below summarizes the human hepatocyte t1/2 values (hours) collected in the Example.

Series [3] deals with PI3Kδ (Homo sapiens (Human), UniProt O00329). Kind of series: Enzymatic activity of PI3K isoforms, TR-FRET assay (PI3Kδ). To be noted: 2× Km ATP, geometric mean if more than one value. The format is biochemical. The method, boiled down:
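Recombinant heterodimeric PI3Kβ or PI3Kδ (25-50 pM) was run with 2 μM PIP2 and 2× Km ATP (75-500 μM) at pH 7.4, for 30 min at 25° C. PIP3 formation was detected by TR-FRET displacement of labeled PIP3 from Eu-GRP-1. IC50 values in nM come from four-parameter fits, as geometric means.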
In general terms: Time-resolved FRET reads energy transfer from a long-lived donor to a nearby acceptor.

For orientation: EC50 means the concentration needed to bring the measured effect to its halfway point. By half-life is commonly meant how long it takes for the measured level to halve. As a reminder, the IC50 is the concentration that inhibits the measured activity by half.

PI3Kδ, sequence (O00329 whole entry, canonical isoform): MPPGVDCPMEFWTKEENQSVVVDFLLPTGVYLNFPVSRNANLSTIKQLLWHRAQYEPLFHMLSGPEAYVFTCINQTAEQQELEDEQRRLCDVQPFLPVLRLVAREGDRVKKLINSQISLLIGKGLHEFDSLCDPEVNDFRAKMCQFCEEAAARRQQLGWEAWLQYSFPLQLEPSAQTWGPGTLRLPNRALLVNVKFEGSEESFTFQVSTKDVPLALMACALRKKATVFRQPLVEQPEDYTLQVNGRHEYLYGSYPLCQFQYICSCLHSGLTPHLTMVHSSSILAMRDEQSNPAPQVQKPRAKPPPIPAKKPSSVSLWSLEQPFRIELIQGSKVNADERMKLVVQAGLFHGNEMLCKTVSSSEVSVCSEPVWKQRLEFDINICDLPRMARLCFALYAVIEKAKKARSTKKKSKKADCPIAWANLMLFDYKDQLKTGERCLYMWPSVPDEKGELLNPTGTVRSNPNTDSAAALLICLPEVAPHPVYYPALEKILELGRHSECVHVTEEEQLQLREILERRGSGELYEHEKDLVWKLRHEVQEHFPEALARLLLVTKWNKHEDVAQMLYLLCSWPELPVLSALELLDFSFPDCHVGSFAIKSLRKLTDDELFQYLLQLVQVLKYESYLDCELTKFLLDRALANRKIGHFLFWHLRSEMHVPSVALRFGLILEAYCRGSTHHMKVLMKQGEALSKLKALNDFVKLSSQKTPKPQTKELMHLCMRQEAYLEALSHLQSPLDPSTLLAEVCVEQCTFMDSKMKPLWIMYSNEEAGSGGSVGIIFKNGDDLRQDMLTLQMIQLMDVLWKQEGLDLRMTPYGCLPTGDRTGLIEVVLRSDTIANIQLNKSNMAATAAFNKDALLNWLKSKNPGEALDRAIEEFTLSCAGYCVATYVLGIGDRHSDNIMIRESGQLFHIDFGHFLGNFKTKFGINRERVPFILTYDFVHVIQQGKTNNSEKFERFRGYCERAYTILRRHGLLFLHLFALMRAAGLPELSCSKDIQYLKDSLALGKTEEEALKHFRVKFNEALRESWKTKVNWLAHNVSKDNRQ
PI3Kδ, sequence (P27986 whole entry partner, canonical isoform): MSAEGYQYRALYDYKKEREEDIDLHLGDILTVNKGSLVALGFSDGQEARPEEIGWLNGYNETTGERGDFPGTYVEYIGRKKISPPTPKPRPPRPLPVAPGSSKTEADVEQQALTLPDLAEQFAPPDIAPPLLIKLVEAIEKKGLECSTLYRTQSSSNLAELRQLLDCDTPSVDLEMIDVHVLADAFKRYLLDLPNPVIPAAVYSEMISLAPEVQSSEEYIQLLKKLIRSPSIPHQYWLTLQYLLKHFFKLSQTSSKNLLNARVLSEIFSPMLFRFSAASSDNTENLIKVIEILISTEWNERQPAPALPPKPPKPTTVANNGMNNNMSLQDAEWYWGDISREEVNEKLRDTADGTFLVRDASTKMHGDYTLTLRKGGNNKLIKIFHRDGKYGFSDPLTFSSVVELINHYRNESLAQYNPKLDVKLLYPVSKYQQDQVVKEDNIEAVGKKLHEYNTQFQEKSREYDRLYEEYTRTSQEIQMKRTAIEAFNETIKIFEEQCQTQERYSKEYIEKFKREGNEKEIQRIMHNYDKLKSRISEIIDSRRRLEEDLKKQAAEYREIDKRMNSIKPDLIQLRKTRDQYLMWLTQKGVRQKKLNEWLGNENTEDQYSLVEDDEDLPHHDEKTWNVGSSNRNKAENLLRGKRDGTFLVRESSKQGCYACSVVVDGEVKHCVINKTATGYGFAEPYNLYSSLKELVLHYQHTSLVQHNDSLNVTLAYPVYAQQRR

As to `C[C@H](Nc1nc(N)nc(N)c1C#N)c1nc2cccc(Cl)c2c(=O)n1-c1cncc(C(F)F)c1` [Compound 15, (S)-2,4-diamino-6-(1-(5-chloro-3-(5-(difluoromethyl)pyridin-3-yl)-4-oxo-3,4-dihydroquinazolin-2-yl)ethylamino)pyrimidine-5-carbonitrile], the EC50 in series [1] (class symbol) is 10 to 50 nM; in series [1] (geometric mean) it was 19 nM. Further, the half-life at 2 μM in series [2] (class symbol) and in series [2] (Table 3) was over 10 h throughout. Moreover, the IC50 in series [3] came to 4 nM.

Turning to `C[C@H](Nc1nc(N)nc(N)c1C#N)c1nc2cccc(Cl)c2c(=O)n1-c1cncc(C2CC2)c1` [Compound 19, (S)-2,4-diamino-6-(1-(5-chloro-3-(5-cyclopropylpyridin-3-yl)-4-oxo-3,4-dihydroquinazolin-2-yl)ethylamino)pyrimidine-5-carbonitrile], the figures for the EC50 in series [1] (class symbol) and in series [1] (geometric mean) were 1 to 10 nM and 7 nM, respectively. Moreover, the half-life at 2 μM was 6 to 10 h in series [2] (class symbol) and 7 h in series [2] (Table 3). In addition, in series [3], the IC50 came out at 5 nM.

Regarding `CC[C@H](Nc1nc(N)nc(N)c1C#N)c1nc2cccc(Cl)c2c(=O)n1-c1cncc(F)c1` [Compound 20, (S)-2,4-diamino-6-(1-(5-chloro-3-(5-fluoropyridin-3-yl)-4-oxo-3,4-dihydroquinazolin-2-yl)propylamino)pyrimidine-5-carbonitrile], the EC50 in series [1] (class symbol) is 1 to 10 nM; in series [1] (geometric mean) it was 3 nM. In addition, the half-life at 2 μM in series [2] (class symbol) and in series [2] (Table 3) was over 10 h each time. The compound further returned an IC50 in series [3] of 3 nM.

In the case of `N#Cc1c(N)nc(N)nc1N[C@H](c1nc2cccc(Cl)c2c(=O)n1-c1cncc(F)c1)C1CC1` [Compound 21, (S)-2,4-diamino-6-((5-chloro-3-(5-fluoropyridin-3-yl)-4-oxo-3,4-dihydroquinazolin-2-yl)(cyclopropyl)methylamino)pyrimidine-5-carbonitrile], the EC50 in series [1] (class symbol) is 1 to 10 nM; in series [1] (geometric mean), 4 nM. For the same compound, the half-life at 2 μM in series [2] (class symbol) and in series [2] (Table 3) was over 10 h in each case. It took 2 nM to reach half-maximal inhibition in series [3] (IC50).

As to `C[C@H](Nc1nc(N)nc(N)c1C#N)c1nc2c(Cl)cccc2c(=O)n1-c1cccnc1` [Compound 22, (S)-2,4-diamino-6-(1-(8-chloro-4-oxo-3-(pyridin-3-yl)-3,4-dihydroquinazolin-2-yl)ethylamino)pyrimidine-5-carbonitrile], the results for the EC50 in series [1] (class symbol) and in series [1] (geometric mean) were 1 to 10 nM and 5 nM, respectively. In addition, the figures for the half-life at 2 μM in series [2] (class symbol) and in series [2] (Table 3) were 6 to 10 h and 9 h, respectively. For the same compound, the IC50 in series [3] was determined as 6 nM.

As to `C[C@H](Nc1nc(N)nc(N)c1C#N)c1nc2c(Cl)ccc(Cl)c2c(=O)n1-c1cccnc1` [Compound 23, (S)-2,4-diamino-6-(1-(5,8-dichloro-4-oxo-3-(pyridin-3-yl)-3,4-dihydroquinazolin-2-yl)ethylamino)pyrimidine-5-carbonitrile], the EC50 was under 1 nM in series [1] (class symbol) and 0.8 nM in series [1] (geometric mean). The half-life at 2 μM in series [2] (class symbol) and in series [2] (Table 3) was over 10 h throughout. For the same compound, the IC50 in series [3] was 0.7 nM.

In the case of `C[C@H](Nc1nc(N)nc(N)c1C#N)c1nc2c(F)ccc(Cl)c2c(=O)n1-c1cccnc1` [Compound 24, (S)-2,4-diamino-6-(1-(5-chloro-8-fluoro-4-oxo-3-(pyridin-3-yl)-3,4-dihydroquinazolin-2-yl)ethylamino)pyrimidine-5-carbonitrile], the EC50 in series [1] (class symbol) is under 1 nM; in series [1] (geometric mean), 0.3 nM. In addition, the half-life at 2 μM in series [2] (class symbol) and in series [2] (Table 3) was over 10 h each time. The compound further displayed a half-inhibitory concentration (IC50) in series [3] of 0.4 nM.

With `CC[C@H](Nc1nc(N)nc(N)c1C#N)c1nc2c(F)ccc(Cl)c2c(=O)n1-c1cccnc1` [Compound 26, (S)-2,4-diamino-6-(1-(5-chloro-8-fluoro-4-oxo-3-(pyridin-3-yl)-3,4-dihydroquinazolin-2-yl)propylamino)pyrimidine-5-carbonitrile], the results for the EC50 in series [1] (class symbol) and in series [1] (geometric mean) were under 1 nM and 0.7 nM, respectively. The half-life at 2 μM in series [2] (class symbol) and in series [2] (Table 3) was over 10 h in each case. Also, the 50% inhibitory concentration (IC50) in series [3] was determined as 1 nM.

With `N#Cc1c(N)nc(N)nc1N[C@H](c1nc2c(F)ccc(Cl)c2c(=O)n1-c1cccnc1)C1CC1` [Compound 27, (S)-2,4-diamino-6-((5-chloro-8-fluoro-4-oxo-3-(pyridin-3-yl)-3,4-dihydroquinazolin-2-yl)(cyclopropyl)methylamino)pyrimidine-5-carbonitrile], the EC50 in series [1] (class symbol) is under 1 nM; in series [1] (geometric mean), 0.7 nM. Further, the half-life at 2 μM in series [2] (class symbol) and in series [2] (Table 3) was over 10 h throughout. For the same compound, 1 nM corresponded to half-maximal inhibition in series [3] (IC50).

For `N#Cc1c(N)nc(N)nc1N[C@H](c1nc2c(Cl)ccc(Cl)c2c(=O)n1-c1cccnc1)C1CC1` [Compound 28, (S)-2,4-diamino-6-(cyclopropyl(5,8-dichloro-4-oxo-3-(pyridin-3-yl)-3,4-dihydroquinazolin-2-yl)methylamino)pyrimidine-5-carbonitrile], the 50% effective concentration (EC50) in series [1] (class symbol) was 1 to 10 nM; in series [1] (geometric mean) it was 4 nM. Also, the half-life at 2 μM in series [2] (class symbol) was 6 to 10 h; in series [2] (Table 3) it was 9 h. In series [3], this compound came in with an IC50 of 0.6 nM.

Take `N#Cc1c(N)nc(N)nc1N[C@@H](CC1CC1)c1nc2c(F)ccc(Cl)c2c(=O)n1-c1cccnc1` [Compound 29, (S)-2,4-diamino-6-(1-(5-chloro-8-fluoro-4-oxo-3-(pyridin-3-yl)-3,4-dihydroquinazolin-2-yl)-2-cyclopropylethylamino)pyrimidine-5-carbonitrile]: the EC50 in series [1] (class symbol) was 10 to 50 nM; in series [1] (geometric mean), 10 nM. Moreover, the half-life at 2 μM in series [2] (class symbol) and in series [2] (Table 3) was over 10 h each time. Also, it took 8 nM to reach half-maximal inhibition in series [3] (IC50).

For `C[C@H](Nc1nc(N)nc(N)c1C#N)c1nc2c(Cl)ccc(Cl)c2c(=O)n1-c1cncc(F)c1` [Compound 30, (S)-2,4-diamino-6-(1-(5,8-dichloro-3-(5-fluoropyridin-3-yl)-4-oxo-3,4-dihydroquinazolin-2-yl)ethylamino)pyrimidine-5-carbonitrile], the EC50 in series [1] (class symbol) is under 1 nM; in series [1] (geometric mean), 0.7 nM. The half-life at 2 μM in series [2] (class symbol) was 6 to 10 h; in series [2] (Table 3), 9 h. The same compound registered an IC50 in series [3] of 1 nM.

For the compound `C[C@H](Nc1nc(N)nc(N)c1C#N)c1nc2c(F)ccc(Cl)c2c(=O)n1-c1cncc(F)c1` [Compound 31, (S)-2,4-diamino-6-(1-(5-chloro-8-fluoro-3-(5-fluoropyridin-3-yl)-4-oxo-3,4-dihydroquinazolin-2-yl)ethylamino)pyrimidine-5-carbonitrile], the concentration giving a half-maximal response (EC50) was under 1 nM in series [1] (class symbol) and 0.5 nM in series [1] (geometric mean). The half-life at 2 μM in series [2] (class symbol) and in series [2] (Table 3) was over 10 h each time. Besides, the concentration for half-maximal inhibition (IC50) in series [3] was 1 nM.

Consider `Cc1cncc(-n2c([C@H](C)Nc3nc(N)nc(N)c3C#N)nc3c(F)ccc(Cl)c3c2=O)c1` [Compound 32, (S)-2,4-diamino-6-(1-(5-chloro-8-fluoro-3-(5-methylpyridin-3-yl)-4-oxo-3,4-dihydroquinazolin-2-yl)ethylamino)pyrimidine-5-carbonitrile], for which the concentration giving a half-maximal response (EC50) in series [1] (class symbol) is under 1 nM; in series [1] (geometric mean), 0.4 nM. Also, the half-life at 2 μM in series [2] (class symbol) and in series [2] (Table 3) was over 10 h each time. Also, the IC50 in series [3] was determined as 2 nM.

In the case of `N#Cc1c(N)nc(N)nc1N[C@H](c1nc2c(F)ccc(Cl)c2c(=O)n1-c1cncc(F)c1)C1CC1` [Compound 33, (S)-2,4-diamino-6-((5-chloro-8-fluoro-3-(5-fluoropyridin-3-yl)-4-oxo-3,4-dihydroquinazolin-2-yl)(cyclopropyl)methylamino)pyrimidine-5-carbonitrile], the EC50 in series [1] (class symbol) was 1 to 10 nM; in series [1] (geometric mean), 5 nM. Also, the half-life at 2 μM in series [2] (class symbol) and in series [2] (Table 3) was over 10 h each time. Moreover, in series [3], the concentration for half-maximal inhibition (IC50) was determined as 2 nM.
